Measured values taken from US20070078091A1, “Pharmaceutical combinations for compensating for a testosterone deficiency in men while simultaneously protecting the prostate” (priority 1998, published 2007).

Key:
[1] = system: LNCaP prostate cells; assay: Inhibition of androgen-dependent cell proliferation in LNCaP prostate cells (growth assay, cell number after 7 days); format: cell-based, human; conditions: androgen alone, FIG. 1
Description: In the example of the inhibition of the androgen-dependent cell proliferation in LNCaP prostate cells, the biological mechanism of action of the combination of 17β-hydroxy-17α-methyl-estra-4,9,11-trien-3-one (R 1881)+the 17α-cyano-methyl-17β-hydroxy-estra-4,9-dien-3-one (DIENOGEST=DNG) was examined.
To this end, the human prostate cancer cell LNCaP was cultivated under routine conditions in Dulbecco's modified Eagle medium (DMEM) with the addition of 10% FCS (fetal calf serum).
The cells were then cultured for 2 to 6 passages with DMEM and 10% DCC-FCS (steroid-depleted FCS), before it was used in a growth assay with 5% DCC-FCS.
For the test, the cells were saturated in 24-well plates (10,000 cells/well and ml).
After 24 hours, the steroids that were dissolved in ethanol were added to fresh test medium (final concentration of ethanol 0.1%), and the cells were incubated for 7 days at 37° (5% CO2). The cell number was determined after this time in a cell counting and analysis system (CASY, Scharfe System GmbH).

[2] = system: prostate of castrated male NMRI mice; assay: Prostate weights of castrated mice after combined testosterone/gestagen treatment; format: in vivo
Experimental: The inhibition of a prostate growth that was induced by androgens and that was treated with a combination according to the invention, was also examined in the animal experiment.
To this end, 5 male NMRI mice of Møllegaard Breeding Centre Deutschland GmbH, Schönwalde weighing 28-30 g were castrated. Two weeks after the castration, testosterone propionate (TP) by itself—0.1 mg/animal—was administered to the control animals.
Also, two weeks after castration, the test animals were orally treated daily for one week with testosterone propionate (TP) 0.1 mg/animal/day s.c. and simultaneously with the following gestagens and the following dosages:
cyproterone acetate (CPA) at dosages of 0.1; 0.3; 1; 3 mg/animal/day dienogest (DNG) at dosages of 0.3; 1; 3; 10 mg/animal/day, chloromadinone acetate (CMA) at dosages 0.3; 1; 3; 10 mg/animal/day.
At the end of the test, the prostate weights of the mice were determined, and the test groups were compared.

[3] = system: prostate; conditions: young men under exogenic testosterone administration; cited from earlier work
[4] = system: prostate; conditions: 8-month therapy, 23 men aged 40-65 years, 160 mg/day; cited from earlier work

Structure (SMILES): C[C@]1(O)CC[C@H]2[C@@H]3CCC4=CC(=O)CCC4=C3C=C[C@@]21C [R1881, 17β-hydroxy-17α-methyl-estra-4,9,11-trien-3-one]
- Cell growth of LNCaP cells [1]: induces a cell growth

Structure (SMILES): CCC(=O)O[C@H]1CC[C@H]2[C@@H]3CCC4=CC(=O)CC[C@]4(C)[C@H]3CC[C@]12C [TP, testosterone propionate]
- Effect on prostate weight compared to the castrated and the intact control animals ([2]; 0.1 mg/animal/day): causes a clear increase of the prostate weight
- Prostate weight (mean value ± S.D.) ([2]; TP 0.1 mg/animal alone (TP control), n = 5): 4.4 ± 0.7 mg

Structure (SMILES): CCCCCCC(=O)O[C@H]1CC[C@H]2[C@@H]3CCC4=CC(=O)CC[C@]4(C)[C@H]3CC[C@]12C [testosterone enanthate]
- Prostate size by transrectal ultrasound [3]: an enlargement of the prostate was found

Structure (SMILES): CCCCCCCCCCC(=O)O[C@H]1CC[C@H]2[C@@H]3CCC4=CC(=O)CC[C@]4(C)[C@H]3CC[C@]12C [testosterone undecanoate]
- Increase in size of the prostate [4]: 12%
